Like-named read-outs stand apart in the source and are kept apart here.
Key:
[1] = biological target: T1, human 11β-HSD1 (Homo sapiens, UniProt P28845); test: Enzyme inhibitory activity, human 11β-HSD1 (lysate of stably expressing HEK293 cells, cortisol by competitive ELISA); format: biochemical; settings: human 11β-HSD1, cell lysate, 37° C. for 1 hour, read-out: h HSD1 in vitro assay (IC50 uM)
T1 construct: The obtained PCR products of about 0.9 kbp, 1.2 kbp, and 0.9 kbp were subcloned into an expression vector pcDNA3.1+/Zeo; expressed in transfected cells
T1 sequence (P28845 whole entry): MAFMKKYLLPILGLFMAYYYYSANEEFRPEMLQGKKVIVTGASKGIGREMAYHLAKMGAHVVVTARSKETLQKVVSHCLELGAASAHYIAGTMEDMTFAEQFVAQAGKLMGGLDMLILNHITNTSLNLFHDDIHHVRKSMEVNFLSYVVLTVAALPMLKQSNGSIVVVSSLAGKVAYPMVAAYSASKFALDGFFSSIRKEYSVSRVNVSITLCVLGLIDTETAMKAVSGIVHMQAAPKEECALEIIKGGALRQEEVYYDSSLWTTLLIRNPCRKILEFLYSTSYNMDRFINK
Method: (§1) 1. Human 11β-HSD1-, Human 11β-HSD2- and Mouse 11β-HSD1-Gene Clonings and Establishment of Stably Expressing Cells
(§2) Human 11β-HSD1-, human 11β-HSD2-, and mouse 11β-HSD1-gene clonings were conducted using as a template a reverse transcription product of human-liver RNA, human-kidney RNA (CELL APPLICATIONS), and mouse-kidney RNA respectively, by means of PCR cloning with reference to nucleotide sequences of Genbank Accession Nos. NM_005525, NM_000196, and NM_008288. The obtained PCR products of about 0.9 kbp, 1.2 kbp, and 0.9 kbp were subcloned into an expression vector pcDNA3.1+/Zeo (Invitrogen).
(§3) Human 11β-HSD1- and human 11β-HSD2-expressing vectors were transfected into human kidney-derived cell line, HEK293 cells, using a transfection reagent, jet PEI (Funakoshi). Mouse 11β-HSD1 was transfected to Chinese hamster ovary-derived cell line, CHO-K1 cells. Selection was conducted with 200-400 μg/mL of zeocine (Invitrogen) to provide stably expressing-cell clones. The stably expressing cells were suspended in buffer solution A (20 mmol/L Tris-HCl, pH 7.4, 250 mmol/L sucrose, 1 mmol/L EGTA, 1 mmol/L EDTA, 1 mmol/L MgCl2), sonicated, and then stored at −80° C.
(§4) 2. Assay of Enzyme Inhibitory Activity
(§5) An enzymatic reaction was conducted using a polystyrene 96-well plate. Each well was added with 1 μL of a test agent dissolved in DMSO and then diluted (0.003 to 3 mmol/L), and further added with 10 μL of cell lysate diluted to a concentration of 0.1 mg/mL to 0.4 mg/mL. Next, 90 μL of buffer solution A containing substrate (100 nmol/L cortisone or cortisol) and coenzyme (400 μmol/L NADPH or NAD+) was added and the mixture was incubated at 37° C. for 1 hour. The enzymatic reaction was stopped by treating at 95° C. for 3 minutes. Cortisol that was present in the reaction solution was determined by a competitive ELISA shown below.
(§6) Anti-rabbit IgG antibody (Chemi-con) diluted to 2 μg/mL with carbonate buffer solution (pH 9.6) was added in 100 μL each to a 96-well immuno plate (Nunc) and immobilized by an incubation at 4° C. overnight. 50 μL of enzymatic reaction solution was put onto the plates, and further, anti-cortisol antibody (Cosmo Bio) and HRP-labeled cortisol (Cosmo Bio), diluted with buffer solution B (25 mmol/L Tris-HCl pH 7.4, 137 mmol/L NaCl, 2.68 mmol/L KCl), were added in 50 μL respectively and incubated at 4° C. overnight. After washed three times with buffer solution B containing 0.05% Tween 20, the plates were allowed to develop color by adding 100 μL of color reagent, TMB (Moss). The color reaction was stopped by 25 μL of 1 mol/L sulfuric acid and the absorbance was determined at 450 nm with a microplate reader (Molecular Device, VersaMax).
(§7) The values of human 11β-HSD1, human 11β-HSD2, and mouse 11β-HSD1 activities were subtracted from 100, and the resultant values were regarded as the respective 11β-HSD inhibition rates of example compounds. […] The comparison of human 11β-HSD1 and human 11β-HSD2 inhibiting activities is shown in Table 1, and the comparison of human 11β-HSD1 and mouse 11β-HSD1 inhibiting activities is shown in Table 2.

[2] = biological target: T2, mouse 11β-HSD1 (Mus musculus, UniProt P50172); test: Enzyme inhibitory activity, mouse 11β-HSD1 (lysate of stably expressing CHO-K1 cells, cortisol by competitive ELISA); format: biochemical; settings: Table 2; mouse 11β-HSD1, cell lysate, 37° C. for 1 hour; read-out: m HSD1 in vitro assay (IC50 uM)
T2 construct: The obtained PCR products of about 0.9 kbp, 1.2 kbp, and 0.9 kbp were subcloned into an expression vector pcDNA3.1+/Zeo; expressed in transfected cells
T2 sequence (P50172 whole entry): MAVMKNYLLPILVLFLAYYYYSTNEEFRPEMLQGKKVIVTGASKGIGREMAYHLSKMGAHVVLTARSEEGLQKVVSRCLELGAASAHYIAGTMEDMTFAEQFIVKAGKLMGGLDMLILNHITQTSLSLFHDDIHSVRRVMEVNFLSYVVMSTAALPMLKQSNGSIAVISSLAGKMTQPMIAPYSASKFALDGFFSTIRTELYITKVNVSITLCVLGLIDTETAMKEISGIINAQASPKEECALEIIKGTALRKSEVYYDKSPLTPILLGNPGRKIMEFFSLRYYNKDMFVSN
Method: as §1, §2, §3, §4, §5, §6, §7

Structure (SMILES)	IC50 ([1]; Table 2)	IC50 [2]	IC50 ([1]; Table 1)
CC1(C)C(=O)N(C2C3CC4CC(C3)CC2C4)N1C(=O)c1ccc2c(c1)OCO2 (stereo not shown) [Example 135, 1-(1,3-benzodioxol-5-ylcarbonyl)-4,4-dimethyl-2-(adamantan-2-yl)-1,2-diazetidin-3-one]	0.76 µM	0.11 µM	–
CC1(C)C(=O)N(C2CCCCCC2)N1Cc1cc(F)ccc1Cl [Example 87, 1-(2-chloro-5-fluorobenzyl)-2-cycloheptyl-4,4-dimethyl-1,2-diazetidin-3-one]	0.1 µM	0.85 µM	–
Cc1ccc(F)cc1C(=O)N1N(C2C3CC4CC(C3)CC2C4)C(=O)C1(C)C (stereo not shown) [Example 125, 1-[(5-fluoro-2-methylphenyl)carbonyl]-4,4-dimethyl-2-(adamantan-2-yl)-1,2-diazetidin-3-one]	–	0.42 µM	0.47 µM
CC1(C)C(=O)N(C2CCCCCCC2)N1C(=O)c1ccccc1N [Example 153, 1-[(2-aminophenyl)carbonyl]-2-cyclooctyl-4,4-dimethyl-1,2-diazetidin-3-one]	–	0.032 µM	0.14 µM
CC1(C)C(=O)N(C2C3CC4CC2CC(C(N)=O)(C4)C3)N1c1cccc2ccccc12 (stereo not drawn) [Example 273, cis-4-[2-(naphthalen-1-yl)-3,3-dimethyl-4-oxo-1,2-diazetidin-1-yl]adamantane-1-carboxamide]	0.02 µM	0.1 µM	0.02 µM
CC1(C)C(=O)N(C2C3CC4CC(C3)CC2C4)N1C(=O)c1cc(Cl)cc(Cl)c1 (stereo not shown) [Example 117, 1-[(3,5-dichlorophenyl)carbonyl]-4,4-dimethyl-2-(adamantan-2-yl)-1,2-diazetidin-3-one]	0.98 µM	0.39 µM	–
COc1ccccc1CN1N(C2C3CC4CC(C3)CC2C4)C(=O)C1(C)C (stereo not shown) [Example 51, 1-(2-methoxybenzyl)-4,4-dimethyl-2-(adamantan-2-yl)-1,2-diazetidin-3-one]	0.082 µM	0.58 µM	–
CC1(C)C(=O)N([C@H]2C3CC4CC2C[C@@](Cl)(C4)C3)N1c1cccc2ccccc12 [Example 257, cis-2-(5-chloroadamantan-2-yl)-4,4-dimethyl-1-(naphthalen-1-yl)-1,2-diazetidin-3-one]	–	0.24 µM	0.24 µM
CC1(C)C(=O)N(C2C3CC4CC(C3)CC2C4)N1Cc1ccc(F)cc1Cl (stereo not shown) [Example 45, 1-(2-chloro-4-fluorobenzyl)-4,4-dimethyl-2-(adamantan-2-yl)-1,2-diazetidin-3-one]	0.079 µM	0.14 µM	–
CC1(C)C(=O)N(C2C3CC4CC(C3)CC2C4)N1Cc1ccccc1C(F)(F)F (stereo not shown) [Example 42, 4,4-dimethyl-2-(adamantan-2-yl)-1-[2-(trifluoromethyl)benzyl]-1,2-diazetidin-3-one]	–	0.24 µM	0.025 µM
Cc1cccc(C(=O)N2N(C3CCCCCCC3)C(=O)C2(C)C)c1 [Example 151, 2-cyclooctyl-4,4-dimethyl-1-[(3-methylphenyl)carbonyl]-1,2-diazetidin-3-one]	–	0.3 µM	0.81 µM
CC1(C)C(=O)N([C@H]2C3CC4CC2C[C@](O)(C4)C3)N1Cc1ccccc1C(F)(F)F [Example 66, trans-2-(5-hydroxyadamantan-2-yl)-4,4-dimethyl-1-[2-(trifluoromethyl)benzyl]-1,2-diazetidin-3-one]	–	0.57 µM	0.09 µM
CC1(C)C(=O)N(C2C3CC4CC(C3)CC2C4)N1Cc1ccc(F)cc1 (stereo not shown) [Example 15, 1-(4-fluorobenzyl)-4,4-dimethyl-2-(adamantan-2-yl)-1,2-diazetidin-3-one]	0.36 µM	0.084 µM	–
CC1(C)C(=O)N([C@H]2C3CC4CC2C[C@](C(=O)O)(C4)C3)N1c1cccc2ccccc12 [Example 274, trans-4-[2-(naphthalen-1-yl)-3,3-dimethyl-4-oxo-1,2-diazetidin-1-yl]adamantane-1-carboxylic acid]	–	0.25 µM	0.011 µM
Cc1cccc(N2N(C3C4CC5CC(C4)CC3C5)C(=O)C2(C)C)c1 (stereo not shown) [Example 193, 4,4-dimethyl-1-(3-methylphenyl)-2-(adamantan-2-yl)-1,2-diazetidin-3-one]	0.86 µM	0.36 µM	–
COCOc1ccccc1N1N([C@H]2C3CC4CC2C[C@](Cl)(C4)C3)C(=O)C1(C)C [Example 252, trans-2-(5-chloroadamantan-2-yl)-1-[2-(methoxymethoxy)phenyl]-4,4-dimethyl-1,2-diazetidin-3-one]	–	0.24 µM	0.034 µM
CC1(C)C(=O)N(C2CCCCCC2)N1Cc1ccccc1Cl [Example 83, 1-(2-chlorobenzyl)-2-cycloheptyl-4,4-dimethyl-1,2-diazetidin-3-one]	0.092 µM	0.66 µM	–
CC1(C)C(=O)N(C2C3CC4CC(C3)CC2C4)N1CCCc1ccccc1 (stereo not shown) [Example 261, 4,4-dimethyl-1-(3-phenylpropyl)-2-(adamantan-2-yl)-1,2-diazetidin-3-one]	0.45 µM	0.7 µM	–

Continued by falling IC50 [2], values first:

IC50 ([1]; Table 2)	IC50 [2]	IC50 ([1]; Table 1)	Structure (SMILES)
–	0.43 µM	0.84 µM	CC1(C)C(=O)N(C2CCCCCCC2)N1C(=O)c1cccc(Cl)c1 [Example 150, 1-[(3-chlorophenyl)carbonyl]-2-cyclooctyl-4,4-dimethyl-1,2-diazetidin-3-one]
–	0.38 µM	0.02 µM	CC1(C)C(=O)N([C@H]2C3CC4CC2C[C@](O)(C4)C3)N1c1ccc(F)c2ccccc12 [Example 238, trans-1-(4-fluoronaphthalen-1-yl)-2-(5-hydroxyadamantan-2-yl)-4,4-dimethyl-1,2-diazetidin-3-one]
0.12 µM	0.29 µM	–	CC1(C)C(=O)N([C@H]2C3CC4CC2C[C@](O)(C4)C3)N1Cc1cc(F)ccc1Cl [Example 67, trans-1-(2-chloro-5-fluorobenzyl)-2-(5-hydroxyadamantan-2-yl)-4,4-dimethyl-1,2-diazetidin-3-one]
0.18 µM	0.27 µM	–	CC1(C)C(=O)N([C@H]2C3CC4CC2C[C@](O)(C4)C3)N1c1ccccc1O [Example 233, trans-1-(2-hydroxyphenyl)-2-(5-hydroxyadamantan-2-yl)-4,4-dimethyl-1,2-diazetidin-3-one]
0.75 µM	0.17 µM	–	CC1(C)C(=O)N(C2C3CC4CC(C3)CC2C4)N1C(=O)c1ccc(Br)cc1 (stereo not shown) [Example 106, 1-[(4-bromophenyl)carbonyl]-4,4-dimethyl-2-(adamantan-2-yl)-1,2-diazetidin-3-one]
–	0.16 µM	0.52 µM	Cc1ccc(C(=O)N2N(C3C4CC5CC(C4)CC3C5)C(=O)C2(C)C)c(C)c1 (stereo not shown) [Example 160, 1-[(2,4-dimethylphenyl)carbonyl]-4,4-dimethyl-2-(adamantan-2-yl)-1,2-diazetidin-3-one]
–	0.088 µM	0.056 µM	COc1ccccc1N1N(C2CCCCCCC2)C(=O)C1(C)C [Example 220, 2-cyclooctyl-1-(2-methoxyphenyl)-4,4-dimethyl-1,2-diazetidin-3-one]
0.38 µM	0.086 µM	–	CC1(C)C(=O)N(C2C3CC4CC(C3)CC2C4)N1Cc1cccc(Br)c1 (stereo not shown) [Example 33, 1-(3-bromobenzyl)-4,4-dimethyl-2-(adamantan-2-yl)-1,2-diazetidin-3-one]
–	0.075 µM	0.012 µM	CC1(C)C(=O)N([C@H]2C3CC4CC2C[C@](Cl)(C4)C3)N1c1cccc2ccccc12 [Example 254, trans-2-(5-chloroadamantan-2-yl)-4,4-dimethyl-1-(naphthalen-1-yl)-1,2-diazetidin-3-one]

Source: US8252781B2, “1,2-diazetidin-3-one derivatives and drugs containing same” (Kowa Company, Ltd., priority 2008, dated 2012)
